Data published in article PMC6336887, “Smallest near-infrared fluorescent protein evolved from cyanobacteriochrome as versatile tag for spectral multiplexing” (Nature Communications, 2019).

Tests used:
NpR3784 GAF domain = target: T1, NpR3784 GAF domain (Nostoc punctiforme, UniProt B2J457); assay: near-infrared fluorescence of E. coli co-expressing heme oxygenase; assay type: cell-based; conditions: weak binding; BV produced in the cells
T1 construct: gene Npun_R3784

miRFP670nano = target: T2, miRFP670nano (Nostoc punctiforme, UniProt B2J457, V48M/F66C/M67V/Y68F/P72E/S82A/A89S/N92K/Q96R/T98R/I113Y/G123N/H128Y/N140I/N158H/C160L/L177Q/Q180V, form not given); assay: X-ray crystal structure, […] A; assay type: binding; conditions: covalent thioether, Cys86 to C3^1 of ring A; crystals at pH 4.0; BV from co-expressed heme oxygenase
T2 construct: gene Npun_R3784; single GAF domain, N-terminal alpha1-helix removed, 147 residues, 17 kDa, N-terminal polyhistidine tag, E. coli LMG194 co-expressing heme oxygenase, monomer

near-infrared fluorescence of E. coli co-expressing heme oxygenase (NpR3784 GAF domain): the GAF domain of NpR3784 CBCR
Structure (SMILES): C=CC1=C(C)C(=Cc2[nH]c(C=C3N=C(C=C4NC(=O)C(C)=C4C=C)C(C)=C3CCC(=O)O)c(CCC(=O)O)c2C)NC1=O [biliverdin]
X-ray crystal structure, 1.95 A (miRFP670nano): BV is covalently attached by a thioether bond between the conserved for CBCRs Cys86 residue
